Tests used:
[1] = system: polyvalent resistant (CH strain) houseflies; assay: whole plant or invertebrate; type: in vivo, housefly (CH strain); settings: CH strain
CH strain flies = assay: spray application of pyrethrum, average percent knockdown with time; type: in vivo, housefly (CH strain); settings: pyrethrum 100 + synergist 100 mg/cc
Procedure: The average percent knockdown of CH strain flies, as a function of time, resulting from spray application of pyrethrum, alone and with synergists, are given in Table XXXXIII. Duplicate tests were performed using 50 CH strain houseflies per test. Test solutions of 100 mg and 200mg of pyrethrum per cc of acetone, 200 mg of synergist per cc of acetone, and a mixture of 100 mg of pyrethrum and 100 mg of synergist per cc of acetone were prepared. The fifty CH strain houseflies were put in a 40 liter spray chamber and 1 cc of the test solution was sprayed into the test chamber with a spray pistol. The synergists alone at 200 mg/cc caused no knockdown.

mice [2] = assay: extension of Secobarbital sleeping time by synergists; type: in vivo, Swiss albino white male mice; settings: Secobarbital 37 mg/K; for Relative Sleeping Time: treated/control
Summary of the method: (§1)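 Swiss albino male mice (~38 days, 25-30 g) given synergist at 74.0 or 110.0 mg/kg in corn oil 1 h before Secobarbital 37.0 mg/kg or Noludar 110.0 mg/kg in water. Sleeping time measured from drug dosing to righting-reflex recovery; relative sleeping time = treated ÷ drug-only control.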

mice [3] = assay: extension of Noludar sleeping time by synergists; type: in vivo, Swiss albino white male mice; settings: Noludar 110 mg/K, synergist 110 mg/K
Summary of the method: as §1

mice [4] = assay: synergism of acute toxicity of Dimetilan, GS 13005, Secobarbital and Methadone (intraperitoneal); type: in vivo, Swiss albino white male mice; settings: 48 hours, of eight mice
Summary of the method: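 Male Swiss albino mice (5–6 weeks, 23–27 g), eight per dose; synergist in corn oil given i.p. 1 h before i.p. insecticide or drug (drugs in distilled water). Lethality recorded over at least 6 h; controls received corn oil plus agent alone.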

houseflies = assay: percent kill with Diazinon, Table XXVII (strain not given); type: in vivo, housefly; settings: Diazinon 5 + synergist 10 μg/fly, 1440 min

C#CCON=Cc1cccc2ccccc12 [I-I]
percent kill after 24 hours ([1]; GS 13005 1 + synergist 2 μg/fly): 47% | percent kill after 24 hours ([1]; Pyrethrum 2 + synergist 4 μg/fly): 52% | average percent knockdown (CH strain flies; 5 min): 4% | average percent knockdown (CH strain flies; 10 min): 7% | average percent knockdown (CH strain flies; 15 min): 19% | average percent knockdown (CH strain flies; 20 min): 29% | average percent knockdown (CH strain flies; 25 min): 40% | average percent knockdown (CH strain flies; 30 min): 49% | average percent knockdown (CH strain flies; 40 min): 57% | average percent knockdown (CH strain flies; 50 min): 86% | average percent knockdown (CH strain flies; 60 min): 92% | Mean Sleeping Time (mice [2]; synergist 74 mg/K): 31 min | Relative Sleeping Time (mice [2]; synergist 74 mg/K): 1.1 | Mean Sleeping Time (mice [2]; synergist 110 mg/K): 102 min | Relative Sleeping Time (mice [2]; synergist 110 mg/K): 1.7 | Mean Sleeping Time (mice [3]): 62 min | Relative Sleeping Time (mice [3]; treated/control): 2.1 | number of mice dead (mice [4]; Dimetilan 8 mg/kg + synergist 80 mg/kg ip): 0 | number of mice dead (mice [4]; Dimetilan 8 mg/kg + synergist 240 mg/kg ip): 3 | percent kill (houseflies): 55%

Reference: patent publication US4020111A, “Propynyloxy alkyl arene insecticides” (priority 1975, dated 1977)
